Molecules are shown by their SMILES. In brackets after ≈: the same amount, converted by molar mass.

What is called solubility is how much of the substance goes into solution per volume.

This series in a line: Measurement of solubility in buffer at pH 6.5. In kind it is physicochemical. The note with it: aqueous buffer, kinetic from dmso stock; PBS buffer pH 6.5, shaken 24h at rt, LC-MSMS; read-out: Solubility of example compounds at pH 6.5. The procedure:
Measurement of Solubility in Buffer at pH 6.5 2-4 mg of the test compound are dissolved in DMSO to reach a concentration of 50 g/L (solution A). To 10 μl of this solution 960 μl PBS buffer pH 6.5 are added (final concentration: 515 μg/1); the mixture is shaken for 24h at rt in a 96 well plate. An aliquot is centrifuged at 42000 rpm für 30 min. The supernatant is diluted with acetonitrile/water (8:2) 1:10 and 1:1000 resp. This diluted samples are analyzed by LC-MSMS. Calibration: 10 μl of solution A are diluted with 823 μl DMSO (final concentration: 600 μg/ml), which is further diluted with acetonitrile/water 8:2 by a factor of 100 (provides solution B). The calibration curve is obtained from solution B by further diluting with acetonitrile/water 8:2 with target concentrations of 1.2-12-60-600 ng/ml and injecting these four solutions for MS measurement. PBS-Puffer: 6.18 g sodium chloride and 3.96 g sodium dihydrogen phosphate are dissolved in 1 L aqua dist., the pH is adjusted to 6.5 with 1N sodium hydroxide. The following conditions were used for quantification: Autosampler without auto inject ahead setting, column: Waters OASIS HLB, 2,1×20 mm, 25μ, column temperature: 30° C., flow rate: 2.5 mL/min, injected volume: 2 μl, Splitter (before MS) 1:20.
On to `CC(C)(CC(=O)OCCOC(=O)OCN(C(=O)c1cc(-c2cnn(-c3c(Cl)cc(C(F)(C(F)(F)F)C(F)(F)F)cc3OC(F)(F)F)c2)ccc1Cl)C1(C#N)CC1)C(=O)O` [Example 9, 1-(2-Chloro-5-{1-[2-chloro-4-(1,1,1,2,3,3,3-heptafluoropropan-2-yl)-6-(trifluoromethoxy)phenyl]-1H-pyrazol-4-yl}phenyl)-2-(1-cyanocyclopropyl)-12,12-dimethyl-1,5,10-trioxo-4,6,9-trioxa-2-azatridecan-13-oic Acid], for which the solubility at 24 h worked out at 0.005 mg/mL (≈ 5.58 µM). For the compound `N#CC1(N(COC(=O)O[C@H]2CCC[C@H]2OC(=O)/C=C/C(=O)O)C(=O)c2cc(-c3cnn(-c4c(Cl)cc(C(F)(C(F)(F)F)C(F)(F)F)cc4OC(F)(F)F)c3)ccc2Cl)CC1` (relative stereo) [Example 6, (2E)-4-({(rel 1R,2S)-2-[({[(2-chloro-5-{1-[2-chloro-4-(1,1,1,2,3,3,3-heptafluoropropan-2-yl)-6-(trifluoromethoxy)phenyl]-1H-pyrazol-4-yl}benzoyl)(1-cyanocyclopropyl)amino]methoxy}carbonyl)oxy]cyclopentyl}oxy)-4-oxobut-2-enoic Acid], the solubility at 24 h was found to be 0.004 mg/mL (≈ 4.42 µM).

On to `N#CC1(N(COC(=O)O[C@H]2CC[C@@H](OC(=O)/C=C/C(=O)O)CC2)C(=O)c2cc(-c3cnn(-c4c(Cl)cc(C(F)(C(F)(F)F)C(F)(F)F)cc4OC(F)(F)F)c3)ccc2Cl)CC1` [Example 14, (2E)-4-({cis-4-[({[(2-chloro-5-{1-[2-chloro-4-(1,1,1,2,3,3,3-heptafluoropropan-2-yl)-6-(trifluoromethoxy)phenyl]-1H-pyrazol-4-yl}benzoyl)(1-cyanocyclopropyl)amino]methoxy}carbonyl)oxy]cyclohexyl}oxy)-4-oxobut-2-enoic Acid], for which the solubility at 24 h was 0.019 mg/mL (≈ 20.7 µM). The figure for `N#CC1(N(COC(=O)O[C@H]2CC[C@@H](C(=O)O)CC2)C(=O)c2cc(-c3cnn(-c4c(Cl)cc(C(F)(C(F)(F)F)C(F)(F)F)cc4OC(F)(F)F)c3)ccc2Cl)CC1` [Example 17, Cis-4-[({[(2-Chloro-5-{1-[2-chloro-4-(1,1,1,2,3,3,3-heptafluoropropan-2-yl)-6-(trifluoromethoxy)phenyl]-1H-pyrazol-4-yl}benzoyl)(1-cyanocyclopropyl)amino]methoxy}carbonyl)oxy]cyclohexane-1-carboxylic Acid] is 0.002 mg/mL (≈ 2.35 µM); for `N#CC1(N(COC(=O)O[C@H]2CCC[C@H]2OC(=O)CCC(=O)O)C(=O)c2cc(-c3cnn(-c4c(Cl)cc(C(F)(C(F)(F)F)C(F)(F)F)cc4OC(F)(F)F)c3)ccc2Cl)CC1` (relative stereo) [Example 7, 4-({(rel 1R,2S)-2-[({[(2-chloro-5-{1-[2-chloro-4-(1,1,1,2,3,3,3-heptafluoropropan-2-yl)-6-(trifluoromethoxy)phenyl]-1H-pyrazol-4-yl}benzoyl)(1-cyanocyclopropyl)amino]methoxy}carbonyl)oxy]cyclopentyl}oxy)-4-oxobutanoic Acid] it is 0.003 mg/mL (≈ 3.31 µM); for `Cn1nc(C(F)(F)C(F)(F)F)c(C(F)(F)F)c1-n1cc(-c2ccc(Cl)c(C(=O)N(COC(=O)OCC(C)(C)COC(=O)/C=C/C(=O)O)C3(C#N)CC3)c2)cn1` [Example 39, (12E)-1-{2-chloro-5-[2′-methyl-5′-(pentafluoroethyl)-4′-(trifluoromethyl)-2′H-[1,3′-bipyrazol]-4-yl]phenyl}-2-(1-cyanocyclopropyl)-8,8-dimethyl-1,5,11-trioxo-4,6,10-trioxa-2-azatetradec-12-en-14-oic Acid] it is 0.043 mg/mL (≈ 53 µM). The figure for `N#CC1(N(COC(=O)O[C@H]2CC[C@H](OC(=O)/C=C/C(=O)O)CC2)C(=O)c2cc(-c3cnn(-c4c(Cl)cc(C(F)(C(F)(F)F)C(F)(F)F)cc4OC(F)(F)F)c3)ccc2Cl)CC1` [Example 16, (2E)-4-({trans-4-[({[(2-chloro-5-{1-[2-chloro-4-(1,1,1,2,3,3,3-heptafluoropropan-2-yl)-6-(trifluoromethoxy)phenyl]-1H-pyrazol-4-yl}benzoyl)(1-cyanocyclopropyl)amino]methoxy}carbonyl)oxy]cyclohexyl}oxy)-4-oxobut-2-enoic Acid] is 0.002 mg/mL (≈ 2.18 µM).

`Cn1nc(C(F)(F)C(F)(F)F)c(C(F)(F)F)c1-n1cc(-c2ccc(Cl)c(C(=O)N(COC(=O)O[C@H]3CC[C@@H](C(=O)O)CC3)C3(C#N)CC3)c2)cn1` [Example 23, Cis-4-[({[{2-Chloro-5-[2′-methyl-5′-(pentafluoroethyl)-4′-(trifluoromethyl)-2′H-[1,3′-bipyrazol]-4-yl]benzoyl}(1-cyanocyclopropyl)amino]methoxy}carbonyl)oxy]cyclohexane-1-carboxylic Acid]: the solubility at 24 h stood at 0.05 mg/mL (≈ 66.4 µM). As to `Cn1nc(C(F)(F)C(F)(F)F)c(C(F)(F)F)c1-n1cc(-c2ccc(Cl)c(C(=O)N(COC(=O)OCC(C)(C)C(=O)O)C3(C#N)CC3)c2)cn1` [Example 21, 3-[({[{2-Chloro-5-[2′-methyl-5′-(pentafluoroethyl)-4′-(trifluoromethyl)-2′H-[1,3′-bipyrazol]-4-yl]benzoyl}(1-cyanocyclopropyl)amino]methoxy}carbonyl)oxy]-2,2-dimethylpropanoic Acid], the solubility at 24 h was 0.136 mg/mL (≈ 187 µM). For `N#CC1(N(COC(=O)OCCC(=O)O)C(=O)c2cc(-c3cnn(-c4c(Cl)cc(C(F)(C(F)(F)F)C(F)(F)F)cc4OC(F)(F)F)c3)ccc2Cl)CC1` [Example 36, 3-[({[(2-Chloro-5-{1-[2-chloro-4-(1,1,1,2,3,3,3-heptafluoropropan-2-yl)-6-(trifluoromethoxy)phenyl]-1H-pyrazol-4-yl}benzoyl)(1-cyanocyclopropyl)amino]methoxy}carbonyl)oxy]propanoic Acid] the value was 0.016 mg/mL (≈ 20.1 µM); for `Cn1nc(C(F)(F)C(F)(F)F)c(C(F)(F)F)c1-n1cc(-c2ccc(Cl)c(C(=O)N(COC(=O)O[C@H]3CC[C@@H](OC(=O)/C=C/C(=O)O)CC3)C3(C#N)CC3)c2)cn1` [Example 32, Cis-(2E)-4-({-4-[({[{2-Chloro-5-[2′-methyl-5′-(pentafluoroethyl)-4′-(trifluoromethyl)-2′H-[1,3′-bipyrazol]-4-yl]benzoyl}(1-cyanocyclopropyl)amino]methoxy}carbonyl)oxy]cyclohexyl}oxy)-4-oxobut-2-enoic Acid], 0.041 mg/mL (≈ 49.8 µM); for `Cn1nc(C(F)(F)C(F)(F)F)c(C(F)(F)F)c1-n1cc(-c2ccc(Cl)c(C(=O)N(COC(=O)OCCOC(=O)C3(C(=O)O)CC3)C3(C#N)CC3)c2)cn1` [Example 27, 1-[10-{2-Chloro-5-[2′-methyl-5′-(pentafluoroethyl)-4′-(trifluoromethyl)-2′H-[1,3′-bipyrazol]-4-yl]phenyl}-9-(1-cyanocyclopropyl)-6,10-dioxo-2,5,7-trioxa-9-azadecanan-1-oyl]cyclopropane-1-carboxylic Acid], 0.147 mg/mL (≈ 188 µM). For `Cn1nc(C(F)(F)C(F)(F)F)c(C(F)(F)F)c1-n1cc(-c2ccc(Cl)c(C(=O)N(COC(=O)OCCCOC(=O)/C=C/C(=O)O)C3(C#N)CC3)c2)cn1` [Example 25, (12E)-1-{2-Chloro-5-[2′-methyl-5′-(pentafluoroethyl)-4′-(trifluoromethyl)-2′H-[1,3′-bipyrazol]-4-yl]phenyl}-2-(1-cyanocyclopropyl)-1,5,11-trioxo-4,6,10-trioxa-2-azatetradec-12-en-14-oic Acid] the value was 0.098 mg/mL (≈ 125 µM); for `N#CC1(N(COC(=O)OCCOC(=O)C2(C(=O)O)CC2)C(=O)c2cc(-c3cnn(-c4c(Cl)cc(C(F)(C(F)(F)F)C(F)(F)F)cc4OC(F)(F)F)c3)ccc2Cl)CC1` [Example 13, 1-[10-(2-Chloro-5-{1-[2-chloro-4-(1,1,1,2,3,3,3-heptafluoropropan-2-yl)-6-(trifluoromethoxy)phenyl]-1H-pyrazol-4-yl}phenyl)-9-(1-cyanocyclopropyl)-6,10-dioxo 2,5,7-trioxa-9-azadecanan-1-oyl]cyclopropane-1-carboxylic Acid], 0.007 mg/mL (≈ 7.96 µM); for `Cn1nc(C(F)(F)C(F)(F)F)c(C(F)(F)F)c1-n1cc(-c2ccc(Cl)c(C(=O)N(COC(=O)OCC(C)(C)COC(=O)CCC(=O)O)C3(C#N)CC3)c2)cn1` [Example 29, 1-{2-Chloro-5-[2′-methyl-5′-(pentafluoroethyl)-4′-(trifluoromethyl)-2′H-[1,3′-bipyrazol]-4-yl]phenyl}-2-(1-cyanocyclopropyl)-8,8-dimethyl-1,5,11-trioxo-4,6,10-trioxa-2-azatetradecan-14-oic Acid], 0.035 mg/mL (≈ 43 µM). The figure for `N#CC1(N(COC(=O)O[C@H]2CC[C@@H](OC(=O)CCC(=O)O)CC2)C(=O)c2cc(-c3cnn(-c4c(Cl)cc(C(F)(C(F)(F)F)C(F)(F)F)cc4OC(F)(F)F)c3)ccc2Cl)CC1` [Example 15, 4-({cis-4-[({[(2-chloro-5-{1-[2-chloro-4-(1,1,1,2,3,3,3-heptafluoropropan-2-yl)-6-(trifluoromethoxy)phenyl]-1H-pyrazol-4-yl}benzoyl)(1-cyanocyclopropyl)amino]methoxy}carbonyl)oxy]cyclohexyl}oxy)-4-oxobutanoic Acid] is 0.001 mg/mL (≈ 1.09 µM); for `Cn1nc(C(F)(F)C(F)(F)F)c(C(F)(F)F)c1-n1cc(-c2ccc(Cl)c(C(=O)N(COC(=O)OCC(=O)O)C3(C#N)CC3)c2)cn1` [Example 30, [({[{2-Chloro-5-[2′-methyl-5′-(pentafluoroethyl)-4′-(trifluoromethyl)-2′H-[1,3′-bipyrazol]-4-yl]benzoyl}(1-cyanocyclopropyl)amino]methoxy}carbonyl)oxy]acetic Acid] it is 0.398 mg/mL (≈ 581 µM).

The values are drawn from US20220008391A1, “NOVEL COMPOUNDS FOR CONTROLLING ARTHROPODS” (Bayer Animal Health GmbH, priority 2018, published 2022).
